Assay results as given in BindingDB's records for doi:10.1016/0006-291x(92)90654-4 (Veterans Affairs Medical Center, 1992).
pKi: −log10 of the molar value.

molecular target: 5-hydroxytryptamine receptor 1B (Homo sapiens, UniProt P28222)
Sequence (P28222 whole entry): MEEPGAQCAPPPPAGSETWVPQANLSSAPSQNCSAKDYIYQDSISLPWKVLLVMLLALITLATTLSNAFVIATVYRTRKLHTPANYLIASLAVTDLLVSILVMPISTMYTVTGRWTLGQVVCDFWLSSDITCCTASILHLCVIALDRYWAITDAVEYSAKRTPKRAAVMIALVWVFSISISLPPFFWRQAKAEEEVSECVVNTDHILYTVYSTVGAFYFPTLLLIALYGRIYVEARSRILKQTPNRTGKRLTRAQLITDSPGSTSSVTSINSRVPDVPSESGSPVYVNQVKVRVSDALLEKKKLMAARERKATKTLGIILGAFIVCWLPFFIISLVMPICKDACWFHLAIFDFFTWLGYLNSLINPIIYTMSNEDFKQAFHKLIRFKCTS

Compound	pKi
CN1C2CCC1CC(OC(=O)c1c[nH]c3ccccc13)C2 (stereo unspecified)	< 5.00
COc1ccc2[nH]cc(C3=CCNCC3)c2c1 [5-Methoxy-3-(1,2,3,6-tetrahydro-pyridin-4-yl)-1H-indole(RU-24969)]	7.91
CN1CC(C(=O)N[C@]2(C)O[C@@]3(O)C4CCCN4C(=O)[C@H](Cc4ccccc4)N3C2=O)CC2c3cccc4[nH]cc(c34)CC21 (stereo partly drawn) [7-Methyl-4,6,6a,7,8,9,10,10a-octahydro-indolo[4,3-fg]quinoline-9-carboxylic acid ((2R,5S,10bS)-5-benzyl-10b-hydroxy-2-methyl-3,6-dioxo-octahydro-oxazolo[3,2-a]pyrrolo[2,1-c]pyrazin-2-yl)-amide]	11.22
O=C(CCCN1CCC2(CC1)C(=O)NCN2c1ccccc1)c1ccc(F)cc1 [8-[4-(4-fluorophenyl)-4-oxidanylidene-butyl]-1-phenyl-1,3,8-triazaspiro[4.5]decan-4-one]	< 5.00
CN1CCN(c2nc3cc(C(F)(F)F)ccc3n3cccc23)CC1 [CAS_109028-10-6]	10.40
CN1C[C@@H](NS(=O)(=O)N(C)C)C[C@@H]2c3cccc4c3c(cn4C)C[C@H]21 [MESULERGINE]	6.19
CC(C)(C)NCC(O)COc1cccc2[nH]c(C#N)cc12 (stereo unspecified) [NSC_155346]	7.66
Cc1cc(C(C)(C)C)c(O)c(C)c1CC1=NCCN1 [SMR000059324]	9.59
FC(F)(F)c1cccc(N2CCNCC2)c1 [TFMPP]	7.55
Clc1cccc(N2CCNCC2)c1 [mCPP]	7.05
CSc1ccc2c(c1)C(N1CCN(C)CC1)Cc1ccccc1S2 (stereo unspecified) [methanesulfonic acid;1-methyl-4-(3-methylsulfanyl-5,6-dihydrobenzo[b][1]benzothiepin-5-yl)piperazine]	9.70
